Results taken from DBAASP.
In brackets after ≈: the same amount, converted by molar mass.

Tests used:
Test in all cases: ≥ marks a high value that may be exact or a test limit, other limits are often not marked, values filed in µg/mL are converted to µM
Bacillus subtilis = test system: Bacillus subtilis
[1] = test system: Escherichia coli DH5alpha
[2] = test system: Pseudomonas aeruginosa ATCC 27853
[3] = test system: Staphylococcus aureus ATCC 25923
[4] = test system: Candida albicans NCPF 1467
[5] = test system: Escherichia coli NCTC 10418
[6] = test system: Staphylococcus aureus NCTC 10788
[7] = test system: Candida albicans ATCC 2002
[8] = test system: Escherichia coli ATCC 25922
[9] = test system: Pseudomonas aeruginosa CMCCB 10104

Row | SMILES | MIC [3] | MIC [4] | MIC [5] | MIC [6] | further results
1 | CC[C@H](C)[C@H](NC(=O)[C@H](Cc1ccccc1)NC(=O)[C@@H](NC(=O)[C@H](Cc1ccccc1)NC(=O)[C@H](CCCN=C(N)N)NC(=O)[C@H](CCCCN)NC(=O)[C@H](CCCN=C(N)N)NC(=O)[C@H](CCCCN)NC(=O)[C@H](Cc1ccccc1)NC(=O)[C@H](CC(C)C)NC(=O)[C@@H](NC(=O)[C@@H](N)Cc1ccc(O)cc1)C(C)C)[C@@H](C)CC)C(=O)O [YVLFKRKRFIFI] | 200 µM (≈ 326 µg/mL) | – | – | – | MIC (Bacillus subtilis): ≥ 200 µM; MIC [1]: ≥ 50 µM; MIC [2]: > 200 µM
2 | CC[C@H](C)[C@H](NC(=O)[C@H](C)NC(=O)[C@H](C)NC(=O)[C@@H]1CCCN1C(=O)[C@@H](NC(=O)[C@H](CC(C)C)NC(=O)[C@H](CO)NC(=O)[C@H](CC(C)C)NC(=O)[C@@H](N)Cc1ccccc1)[C@@H](C)CC)C(=O)N[C@@H](CO)C(=O)N[C@@H](C)C(=O)N[C@H](C(=O)N[C@@H](CO)C(=O)N[C@@H](C)C(=O)N[C@@H](CC(C)C)C(=O)N[C@@H](C)C(=O)N[C@@H](CC(N)=O)C(=O)N[C@@H](Cc1cnc[nH]1)C(N)=O)C(C)C [FLSLIPAAISAVSALANH] | – | ≥ 132 µM | ≥ 264 µM | ≥ 33 µM | –
3 | CC[C@H](C)[C@H](NC(=O)[C@H](C)NC(=O)[C@@H](N)C(C)C)C(=O)N[C@@H](Cc1ccc(O)cc1)C(=O)NCC(=O)N[C@@H](CCCN=C(N)N)C(=O)N[C@@H](CC(=O)O)C(=O)N[C@@H](CC(=O)O)C(=O)N[C@@H](CCCN=C(N)N)C(=O)N[C@@H](CO)C(=O)N[C@@H](CC(=O)O)C(=O)N[C@H](C(=O)N[C@H]1CSSC[C@@H](C(=O)N[C@@H](CC(=O)O)C(=O)N[C@H](C(=O)N[C@@H](Cc2ccc(O)cc2)C(=O)O)[C@@H](C)O)NC(=O)[C@H](C(C)C)NC(=O)[C@H](CC(C)C)NC(=O)[C@H](Cc2c[nH]c3ccccc23)NC(=O)[C@H](CC(N)=O)NC(=O)[C@H](Cc2cnc[nH]2)NC(=O)[C@H](CCC(N)=O)NC(=O)[C@H](C(C)C)NC(=O)[C@H](CCC(N)=O)NC(=O)[C@H](CCCN=C(N)N)NC1=O)C(C)C [VAIYGRDDRSDVCRQVQHNWLVCDTY] | > 64.3 µM | – | – | – | MIC [7]: ≥ 64.3 µM; MIC [8]: > 64.3 µM; MIC [9]: ≥ 64.3 µM
4 | CC[C@H](C)[C@H](NC(=O)[C@H](C)NC(=O)[C@@H]1CCCN1C(=O)[C@H](CCCN=C(N)N)NC(=O)[C@@H](N)CC(C)C)C(=O)N[C@@H](CC(C)C)C(=O)N[C@H](C(=O)N[C@@H](CCCN=C(N)N)C(=O)N[C@H](C(=O)N[C@@H](CCCCN)C(N)=O)[C@@H](C)O)C(C)C [LRPAILVRTK] | – | ≥ 439 µM | ≥ 439 µM | ≥ 439 µM | –

Continued, in another order:

Row | MIC [3] | MIC [4] | MIC [5] | MIC [6] | SMILES | further results
5 | – | 6 µM (≈ 15.2 µg/mL) | 12 µM (≈ 30.4 µg/mL) | 3 µM (≈ 7.6 µg/mL) | CC[C@H](C)[C@H](NC(=O)CN)C(=O)NCC(=O)NCC(=O)N[C@@H](C)C(=O)N[C@@H](CC(C)C)C(=O)N[C@@H](CC(C)C)C(=O)N[C@@H](CO)C(=O)N[C@@H](C)C(=O)NCC(=O)N[C@@H](CCCCN)C(=O)N[C@@H](C)C(=O)N[C@@H](C)C(=O)N[C@@H](CC(C)C)C(=O)N[C@@H](CCCCN)C(=O)NCC(=O)N[C@@H](CC(C)C)C(=O)N[C@@H](C)C(=O)N[C@@H](CCCCN)C(=O)NCC(=O)N[C@@H](CC(C)C)C(=O)N[C@@H](C)C(=O)N[C@@H](CCC(=O)O)C(=O)N[C@@H](Cc1cnc[nH]1)C(=O)N[C@@H](Cc1ccccc1)C(=O)N[C@@H](C)C(=O)N[C@@H](CC(N)=O)C(N)=O [GIGGALLSAGKAALKGLAKGLAEHFAN] | –
6 | – | ≥ 202 µM | ≥ 202 µM | ≥ 202 µM | CC[C@H](C)[C@H](NC(=O)[C@H](CO)NC(=O)[C@H](CC(N)=O)NC(=O)[C@@H](NC(=O)[C@H](Cc1ccccc1)NC(=O)[C@H](C)NC(=O)[C@H](CO)NC(=O)[C@H](C)NC(=O)[C@H](Cc1ccccc1)NC(=O)[C@H](CC(=O)O)NC(=O)[C@H](CCCCN)NC(=O)[C@H](C)NC(=O)CNC(=O)[C@@H](NC(=O)[C@H](CCCCN)NC(=O)[C@H](CC(C)C)NC(=O)[C@H](CCCCN)NC(=O)[C@H](CCC(=O)O)NC(=O)[C@H](CC(C)C)NC(=O)[C@H](Cc1ccccc1)NC(=O)CN)[C@@H](C)O)C(C)C)C(=O)N[C@@H](CCCCN)C(=O)NCC(=O)N[C@H](C(=O)O)[C@@H](C)O [GFLEKLKTGAKDFASAFVNSIKGT] | –
7 | – | ≥ 200 µM | ≥ 200 µM | ≥ 200 µM | CC[C@H](C)[C@H](NC(=O)[C@H](Cc1cnc[nH]1)NC(=O)[C@@H]1CCCN1C(=O)[C@@H](NC(=O)[C@H](CC(C)C)NC(=O)[C@H](CO)NC(=O)[C@H](CC(C)C)NC(=O)[C@@H](N)Cc1ccccc1)[C@@H](C)CC)C(=O)N[C@H](C(=O)N[C@@H](CO)C(=O)NCC(=O)N[C@H](C(=O)N[C@@H](C)C(=O)N[C@@H](C)C(=O)N[C@@H](CC(C)C)C(=O)N[C@@H](C)C(=O)N[C@@H](CC(N)=O)C(=O)N[C@@H](Cc1cnc[nH]1)C(=O)N[C@@H](CC(C)C)C(N)=O)C(C)C)C(C)C [FLSLIPHIVSGVAALANHL] | –
8 | – | 2.5 µM (≈ 4.97 µg/mL) | 5 µM (≈ 9.94 µg/mL) | 5 µM (≈ 9.94 µg/mL) | CC[C@H](C)[C@H](NC(=O)[C@H](CC(C)C)NC(=O)[C@H](CCCCN)NC(=O)[C@H](CCCCN)NC(=O)[C@@H](NC(=O)[C@H](CC(C)C)NC(=O)[C@H](CCCCN)NC(=O)[C@@H]1CCCN1C(=O)[C@@H](NC(=O)[C@H](CCSC)NC(=O)CNC(=O)[C@H](CC(C)C)NC(=O)[C@@H](N)Cc1ccccc1)[C@@H](C)CC)[C@@H](C)CC)C(=O)N[C@@H](CCCCN)C(=O)N[C@@H](C)C(=O)N[C@@H](Cc1ccccc1)C(=O)N[C@@H](CCCCN)C(=O)O [FLGMIPKLIKKLIKAFK] | –
9 | > 64.9 µM | – | – | – | CC[C@H](C)[C@H](NC(=O)[C@H](Cc1ccc(O)cc1)NC(=O)[C@H](CO)NC(=O)[C@H](CS)NC(=O)[C@H](Cc1ccccc1)NC(=O)[C@H](CC(C)C)NC(=O)[C@H](CC(N)=O)NC(=O)[C@H](CCC(=O)O)NC(=O)[C@H](CCSC)NC(=O)[C@H](CC(C)C)NC(=O)[C@@H](NC(=O)[C@@H](NC(=O)[C@H](CC(=O)O)NC(=O)[C@H](CCC(=O)O)NC(=O)[C@H](CCC(=O)O)NC(=O)[C@H](C)NC(=O)[C@H](CC(N)=O)NC(=O)[C@@H](N)CCC(=O)O)[C@@H](C)CC)C(C)C)C(=O)N[C@H](C(=O)NCC(=O)N[C@@H](CO)C(=O)N[C@@H](C)C(=O)N[C@@H](CC(=O)O)C(=O)N[C@@H](CO)C(=O)N[C@@H](Cc1ccccc1)C(=O)N[C@@H](Cc1c[nH]c2ccccc12)C(=O)N[C@H](C(=O)O)[C@@H](C)O)C(C)C [ENAEEDIVLMENLFCSYIVGSADSFWT] | MIC [7]: ≥ 64.9 µM; MIC [8]: > 64.9 µM; MIC [9]: ≥ 64.9 µM
